Reference: US20260207621A1 (Vividion Therapeutics, Inc., priority 2022, published 2026)

Experiments:
KEAP1 C151 = molecular target: T1, KEAP1 C151 (Homo sapiens, UniProt Q14145); experiment: Nrf2 TMT measurement: in vitro TE50 for KEAP1 C151 (IA-DTB competition, targeted TMT mass spectrometry) in MDA-MB-468 cell lysate; assay type: binding; conditions: in vitro target engagement of KEAP1 C151, targeted TMT, read-out: KEAP1_C151 TE50
T1 construct: treating 500 μg of cell lysate generated from MDA-MB-468 breast cancer cells with DMSO or compound; endogenous in cells; host or cells: MDA-MB-468 breast cancer cell lysate
T1 sequence (Q14145 whole entry): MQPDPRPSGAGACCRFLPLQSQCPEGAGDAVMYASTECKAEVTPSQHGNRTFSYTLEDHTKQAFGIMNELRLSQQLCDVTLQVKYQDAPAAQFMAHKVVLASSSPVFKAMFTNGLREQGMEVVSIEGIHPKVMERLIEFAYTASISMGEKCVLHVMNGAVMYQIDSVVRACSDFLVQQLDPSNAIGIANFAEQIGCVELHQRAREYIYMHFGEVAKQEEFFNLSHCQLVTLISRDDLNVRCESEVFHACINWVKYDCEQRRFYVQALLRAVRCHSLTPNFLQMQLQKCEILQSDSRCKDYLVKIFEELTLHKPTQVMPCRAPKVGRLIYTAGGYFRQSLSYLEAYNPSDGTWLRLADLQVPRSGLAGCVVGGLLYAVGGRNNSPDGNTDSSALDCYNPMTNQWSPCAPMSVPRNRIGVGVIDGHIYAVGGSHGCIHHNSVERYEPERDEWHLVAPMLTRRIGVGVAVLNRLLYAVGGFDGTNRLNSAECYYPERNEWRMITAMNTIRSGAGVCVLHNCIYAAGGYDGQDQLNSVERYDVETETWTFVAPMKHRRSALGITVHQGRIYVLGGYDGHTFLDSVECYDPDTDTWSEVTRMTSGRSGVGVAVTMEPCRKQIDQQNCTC
Method in brief: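 MDA-MB-468 lysate (500 μg) treated with compound for 1 h at room temperature, then 200 μM IA-DTB for 1 h. Labeled peptides streptavidin-enriched after trypsin digest, TMT-labeled and quantified by targeted MS3 on the KEAP1 C151 peptide. IC50 from dose-response curve fitting.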

Nrf2 = Nrf2 antagonism assay: ARE luciferase reporter in KYSE-70 cells; assay type: cell-based; conditions: Homo sapiens, KYSE-70, KYSE-70 cells, positive Imax corresponds to Nrf2 antagonism, read-out: KYSE70 Cellular ARE Luciferase Imax (%)
Method in brief: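 KYSE-70 esophageal squamous carcinoma cells carrying Nrf2 W24C (constitutively Nrf2-high) with an ARE-driven luciferase reporter. Loss of luciferase signal reflects Nrf2 antagonism via KEAP1 C151 engagement. IC50 and Imax come from dose-response curves; positive Imax means antagonism.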

Structure (SMILES) | IC50 (KEAP1 C151) [nM] | Emax (Nrf2) [%]
C=CC(=O)N1CCOC[C@H]1c1cc(Cl)cc(-c2cnc(N)c(N)n2)c1 (single isomer, unassigned) [Compound 258] | 16 | 93
C=CC(=O)N1CCOC[C@H]1c1cc(Cl)cc(-c2cnc(OC)c(N)n2)c1 (single isomer, unassigned) [Compound 259] | 140 | 93
C=CC(=O)N1CCOC[C@H]1c1cc(Cl)cc(-c2ncc(F)c(N)n2)c1 (single isomer, unassigned) [Compound 263] | 19 | 93
C=CC(=O)N1CC[C@@](C)(O)C[C@@H]1c1cc(Cl)cc(-c2ncc(N)cn2)c1 (single isomer, unassigned) [Compound 264] | 160 | 86
C=CC(=O)N1CC[C@](C)(O)C[C@H]1c1cc(Cl)cc(-c2ncc(N)cn2)c1 (single isomer, unassigned) [Compound 265] | 11200 | 51
C=CC(=O)N1CC[C@](C)(O)C[C@@H]1c1cc(Cl)cc(-c2ncc(N)cn2)c1 (single isomer, unassigned) [Compound 266] | 320 | 90
C=CC(=O)N1CC2(CC2)N(C(=O)C2CC2)CC1c1cc(Cl)cc(-c2ncc(N)cn2)c1 (single isomer, unassigned) [Compound 267] | 10 | 94
C=CC(=O)N1CCOC[C@H]1c1cc(Cl)cc(-c2nc(Cl)ncc2N)c1 (single isomer, unassigned) [Compound 268] | 490 | 53
C=CC(=O)N1CCOC[C@H]1c1cc(Cl)cc(-c2c[nH]nn2)c1 (single isomer, unassigned) [Compound 269] | 950 | 72
C=CC(=O)N1CCOC[C@H]1c1cc(Cl)cc(-c2cc(N)nc(Cl)n2)c1 (single isomer, unassigned) [Compound 271] | 59 | 93
C=CC(=O)N1CCOC[C@H]1c1cc(Cl)cc(-c2ncc(N)c(F)n2)c1 (single isomer, unassigned) [Compound 278] | 6.1 | 87
C=CC(=O)N1CCOC[C@H]1c1cc(Cl)cc(-c2cnc(F)c(N)n2)c1 (single isomer, unassigned) [Compound 279] | 45 | 92
C=CC(=O)N1CCOC[C@H]1c1cc(Cl)cc(-c2nc(N)cnc2F)c1 (single isomer, unassigned) [Compound 280] | 32 | 90
C=CC(=O)N1CCC(F)(F)CC1c1cc(Cl)cc(-c2ccnc(C)n2)c1 (single isomer, unassigned) [Compound 281, 1-(2-(3-chloro-5-(2-methylpyrimidin-4-yl)phenyl)-4,4-difluoropiperidin-1-yl)prop-2-en-1-on] | 61 | 84
C=CC(=O)N1CCOC[C@H]1c1cc(Cl)cc(-c2cc(N)nc(F)n2)c1 (single isomer, unassigned) [Compound 283] | 18 | 94
C=CC(=O)N1CCC(F)(F)CC1c1cc(Cl)cc(-c2ccnc(N)n2)c1 (single isomer, unassigned) [Compound 284, 1-(2-(3-(2-aminopyrimidin-4-yl)-5-chlorophenyl)-4,4-difluoropiperidin-1-yl)prop-2-en-1-one] | 83 | 94
C=CC(=O)N1CCC(F)(F)CC1c1cc(Cl)cc(-c2cc(C)ncn2)c1 (single isomer, unassigned) [Compound 285, 1-(2-(3-chloro-5-(6-methylpyrimidin-4-yl)phenyl)-4,4-difluoropiperidin-1-yl)prop-2-en-1-one] | 22 | 83
C=CC(=O)N1CC(C)(C)OC[C@H]1c1cc(Cl)cc(-c2cnc(N)c(N)n2)c1 (single isomer, unassigned) [Compound 286] | 32 | 96
C=CC(=O)N1CC(C)(C)OC[C@H]1c1cc(Cl)cc(-c2ncc(N)c(N)n2)c1 (single isomer, unassigned) [Compound 287] | 110 | 96
